Data on four molecules can be found in ChEMBL document CHEMBL3272135, “Quantitative relationships between steroid structure and binding to putative progesterone receptors” (J Med Chem, 1977).

One assay is filed under the species Cavia porcellus. Description: Relative binding affinity to guinea pig progesterone receptor.
Assay [1] has as its target T1, Progesterone receptor (Ovis aries) (UniProt Q28590).
T1 sequence (whole entry): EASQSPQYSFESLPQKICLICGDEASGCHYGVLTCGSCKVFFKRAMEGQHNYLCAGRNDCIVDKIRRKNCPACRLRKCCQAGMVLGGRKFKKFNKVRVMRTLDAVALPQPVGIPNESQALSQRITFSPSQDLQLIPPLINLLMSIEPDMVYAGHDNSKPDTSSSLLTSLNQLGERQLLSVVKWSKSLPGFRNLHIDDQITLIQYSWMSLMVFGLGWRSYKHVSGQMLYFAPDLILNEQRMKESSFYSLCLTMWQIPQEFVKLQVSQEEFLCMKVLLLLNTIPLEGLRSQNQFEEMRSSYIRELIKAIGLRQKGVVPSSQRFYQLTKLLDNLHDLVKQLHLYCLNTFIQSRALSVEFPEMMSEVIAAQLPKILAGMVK
Description: Relative binding affinity to sheep progesterone receptor.

For assay [2], the target named is T2, Progesterone receptor (Homo sapiens) (UniProt P06401).
T2 sequence (whole entry): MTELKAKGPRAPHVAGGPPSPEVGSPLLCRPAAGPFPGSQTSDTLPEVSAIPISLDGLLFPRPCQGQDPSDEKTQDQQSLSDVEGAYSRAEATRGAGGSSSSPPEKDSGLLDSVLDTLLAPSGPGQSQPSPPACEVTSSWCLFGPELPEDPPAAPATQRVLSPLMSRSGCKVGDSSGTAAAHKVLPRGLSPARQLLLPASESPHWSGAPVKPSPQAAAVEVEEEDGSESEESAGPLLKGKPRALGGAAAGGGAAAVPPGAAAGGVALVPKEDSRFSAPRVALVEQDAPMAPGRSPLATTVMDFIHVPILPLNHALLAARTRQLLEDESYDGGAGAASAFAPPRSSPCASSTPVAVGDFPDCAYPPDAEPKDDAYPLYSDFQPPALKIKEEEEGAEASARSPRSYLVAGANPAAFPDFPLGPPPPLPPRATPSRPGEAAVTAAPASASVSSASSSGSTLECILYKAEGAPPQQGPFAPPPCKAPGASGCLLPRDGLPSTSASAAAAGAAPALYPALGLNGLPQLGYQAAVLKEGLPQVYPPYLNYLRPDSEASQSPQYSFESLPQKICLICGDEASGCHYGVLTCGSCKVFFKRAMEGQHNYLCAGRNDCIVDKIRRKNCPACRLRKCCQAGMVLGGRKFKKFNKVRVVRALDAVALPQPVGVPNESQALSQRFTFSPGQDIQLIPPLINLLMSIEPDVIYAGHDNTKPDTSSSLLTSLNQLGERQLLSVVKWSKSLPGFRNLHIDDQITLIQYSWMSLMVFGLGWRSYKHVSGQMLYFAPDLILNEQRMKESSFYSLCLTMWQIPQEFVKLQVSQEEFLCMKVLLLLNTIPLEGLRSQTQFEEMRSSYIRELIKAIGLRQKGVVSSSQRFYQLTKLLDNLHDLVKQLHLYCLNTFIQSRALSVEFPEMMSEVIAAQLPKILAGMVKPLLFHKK

The target in assay [3] is T3, Progesterone receptor (Oryctolagus cuniculus) (UniProt P06186).
T3 sequence (whole entry): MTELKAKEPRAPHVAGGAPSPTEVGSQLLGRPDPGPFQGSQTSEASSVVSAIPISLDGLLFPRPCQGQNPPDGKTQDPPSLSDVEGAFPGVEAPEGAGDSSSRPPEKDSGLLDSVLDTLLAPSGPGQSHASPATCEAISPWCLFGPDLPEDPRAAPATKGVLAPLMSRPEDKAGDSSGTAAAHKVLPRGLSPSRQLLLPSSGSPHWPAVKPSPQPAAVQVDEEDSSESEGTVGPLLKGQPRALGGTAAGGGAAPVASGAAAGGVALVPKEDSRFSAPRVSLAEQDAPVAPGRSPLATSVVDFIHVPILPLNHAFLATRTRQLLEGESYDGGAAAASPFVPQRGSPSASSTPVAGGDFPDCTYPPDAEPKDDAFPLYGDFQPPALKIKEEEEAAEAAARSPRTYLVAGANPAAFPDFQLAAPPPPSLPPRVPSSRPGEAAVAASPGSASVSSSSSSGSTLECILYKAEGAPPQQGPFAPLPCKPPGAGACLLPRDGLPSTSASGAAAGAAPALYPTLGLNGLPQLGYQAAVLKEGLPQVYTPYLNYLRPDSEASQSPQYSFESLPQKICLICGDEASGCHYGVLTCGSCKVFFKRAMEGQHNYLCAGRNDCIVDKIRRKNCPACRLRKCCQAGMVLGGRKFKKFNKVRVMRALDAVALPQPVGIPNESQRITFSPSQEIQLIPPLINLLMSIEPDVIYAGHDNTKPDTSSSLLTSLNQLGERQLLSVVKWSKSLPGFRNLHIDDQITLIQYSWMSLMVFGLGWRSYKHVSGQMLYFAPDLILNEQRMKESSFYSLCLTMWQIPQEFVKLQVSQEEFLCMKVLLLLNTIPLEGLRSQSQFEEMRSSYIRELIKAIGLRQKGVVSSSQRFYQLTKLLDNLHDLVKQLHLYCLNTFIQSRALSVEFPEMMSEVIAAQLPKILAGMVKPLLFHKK
Description: Relative binding affinity to rabbit progesterone receptor.

For the molecule `CC[C@@H]1C[C@H]2[C@@H]3CCC4=CC(=O)CC[C@]4(C)[C@H]3CC[C@]2(C)[C@H]1C(C)=O`, the log(RBA) stood at 1.08 in the assay filed under Cavia porcellus, 1.87 in assay [1], 1.98 in assay [2] and 1.98 in assay [3].

`CC(=O)[C@H]1CC[C@H]2[C@@H]3CCC4=CC(=O)CC[C@@H]4[C@H]3CC[C@]12C`: the log(RBA) in the assay listed under Cavia porcellus was determined as 2.06; in assay [1], 2.13; in assay [2] it was 2.11; in assay [3] it was 2.41.

As for `CC(=O)OCC(=O)[C@H]1CC[C@H]2[C@@H]3CCC4=CC(=O)CC[C@]4(C)[C@H]3CC[C@]12C`, the log(RBA) in the assay listed under Cavia porcellus worked out at 1.34; in assay [1], 1; in assay [2], 1; in assay [3], 1.69.

For the molecule `C#C[C@]1(O)CC[C@H]2[C@@H]3[C@H](C)CC4=C(CCC(=O)C4)[C@H]3CC[C@@]21C`, the log(RBA) was -0.4 in the assay filed under Cavia porcellus, 0.7 in assay [1], 0.78 in assay [2] and 0.903 in assay [3].
